Test results reported in PMC4506557 (Chemmedchem, 2014).

How the values were obtained:
Type in all cases: biochemical
Settings in all cases: at 10 μM; single dose, triplicate
[1] = tested on: MMP-1; assay: MMP-1 fluorometric FRET protease assay
[2] = tested on: MMP-2; assay: MMP-2 fluorometric FRET protease assay
[3] = tested on: MMP-3; assay: MMP-3 fluorometric FRET protease assay
[4] = tested on: MMP-7; assay: MMP-7 fluorometric FRET protease assay
[5] = tested on: MMP-8; assay: MMP-8 fluorometric FRET protease assay
[6] = tested on: MMP-9; assay: MMP-9 fluorometric FRET protease assay
[7] = tested on: MMP-12; assay: MMP-12 fluorometric FRET protease assay
[8] = tested on: MMP-14; assay: MMP-14 fluorometric FRET protease assay

O=C(O)CCCOc1cccc(CNC(=O)C#Cc2cn(Cc3ccc(C(=O)O)cc3)c(=O)[nH]c2=O)c1 [Compound 4, 4-({5-[2-({[3-(3-carboxypropoxy)phenyl]methyl}carbamoyl)eth-1-yn-1-yl]-2,4-dioxo-1,2,3,4-tetrahydropyrimidin-1-yl}methyl)benzoic acid]
<50 % inhibition at 10 μM: MMP-1 inhibition [1] | MMP-2 inhibition [2] | MMP-3 inhibition [3] | MMP-7 inhibition [4] | MMP-8 inhibition [5] | MMP-9 inhibition [6] | MMP-12 inhibition [7] | MMP-14 inhibition [8]
